Data reported in patent publication US11905254B1, “1-(3-chlorobenzylideneamino)-5,5-diphenylimidazolidine-2,4-dione as an antimicrobial compound” (KING FAISAL UNIVERSITY, priority 2023, dated 2024).

Key:
Assay type in all cases: cell-based
different microbes = test: antimicrobial testing, overall statement on Tables 1 and 2; conditions: summary of Tables 1 and 2, bacteria and fungi
Method: (§1) The agar plate disc-diffusion method was applied. Sterilized filter papers (6 mm in diameter) were wetted with 10 μL of a solution of 1-(3-chlorobenzylideneamino)-5,5-diphenylimidazolidine-2,4-dione (4) to be tested, containing 10 mg/mL in DMSO, and the discs were allowed to air dry. The discs were then placed onto the surface of agar plates (nutrient agar for bacteria and Sabouraud's dextrose agar for fungi) seeded with the test organism. Each plate contained 15 mL of the agar medium, previously seeded with 0.2 mL of the broth culture of each organism pregrown for 18 hours. The plates were incubated at 37° C. for 48 hours, and 72 hours for fungi. The inhibition zones was measured in millimeter. Discs impregnated with DMSO were used as a control, and its inhibition zone was subtracted from the tested compound actual inhibition zone.
The antibacterial activity was screened against gram positive bacteria namely Bacillus cereus and Staphylococcus aureus and gram-negative bacterial strains namely Pseudomonas aeruginosa and Escherichia coli, while the antifungal activity was screened against Aspergillus flavus and Chrysosporium keratinophilum.

Bacillus Cereus = test: agar plate disc-diffusion, antibacterial activity by inhibition zone; conditions: nutrient agar, 37° C., 48 hours, DMSO control subtracted
Method: as §1, with “Sterilized filter papers (6 mm in diameter) were wetted with 10 μL of a solution of 1-(3-chlorobenzylideneamino)-5,5-diphenylimidazolidine-2,4-dione (4) to be tested, containing 10 mg/mL in DMSO, and the discs were allowed to air dry.” left out
(§2) The results of the antimicrobial testing can be observed in Tables 1 and 2, below, with ciprofloxacin serving as a reference.

Escherichia coli = test: as above; conditions: nutrient agar, 37° C., 48 hours, DMSO control subtracted
Method: as §1, with “Sterilized filter papers (6 mm in diameter) were wetted with 10 μL of a solution of 1-(3-chlorobenzylideneamino)-5,5-diphenylimidazolidine-2,4-dione (4) to be tested, containing 10 mg/mL in DMSO, and the discs were allowed to air dry.” left out
as §2

Pseudomonas aeruginosa = test: as above; conditions: nutrient agar, 37° C., 48 hours, DMSO control subtracted
Method: as §1, with “Sterilized filter papers (6 mm in diameter) were wetted with 10 μL of a solution of 1-(3-chlorobenzylideneamino)-5,5-diphenylimidazolidine-2,4-dione (4) to be tested, containing 10 mg/mL in DMSO, and the discs were allowed to air dry.” left out
as §2

Staphylococcus aureus = test: as above; conditions: nutrient agar, 37° C., 48 hours, DMSO control subtracted
Method: as §1, with “Sterilized filter papers (6 mm in diameter) were wetted with 10 μL of a solution of 1-(3-chlorobenzylideneamino)-5,5-diphenylimidazolidine-2,4-dione (4) to be tested, containing 10 mg/mL in DMSO, and the discs were allowed to air dry.” left out
as §2

Aspergillus flavus = test: agar plate disc-diffusion, antifungal activity by inhibition zone; conditions: Sabouraud's dextrose agar, 37° C., 72 hours, DMSO control subtracted
Method: as §1, with “Sterilized filter papers (6 mm in diameter) were wetted with 10 μL of a solution of 1-(3-chlorobenzylideneamino)-5,5-diphenylimidazolidine-2,4-dione (4) to be tested, containing 10 mg/mL in DMSO, and the discs were allowed to air dry.” left out
as §2

[1] = test system: Chrysosporium keratinophilum; test: as above; conditions: Sabouraud's dextrose agar, 37° C., 72 hours, DMSO control subtracted
Method: as §1, with “Sterilized filter papers (6 mm in diameter) were wetted with 10 μL of a solution of 1-(3-chlorobenzylideneamino)-5,5-diphenylimidazolidine-2,4-dione (4) to be tested, containing 10 mg/mL in DMSO, and the discs were allowed to air dry.” left out
as §2

[2] = A = concentration of comp. = 10,000 μL
[3] = B = concentration of comp. = 30.000 μL
[4] = C = concentration of comp. = 50,000 μL

For `O=C1NC(=O)C(c2ccccc2)(c2ccccc2)N1/N=C/c1cccc(Cl)c1` [Compound 4, 1-(3-chlorobenzylideneamino)-5,5-diphenylimidazolidine-2,4-dione], the “antimicrobial activities (in words)” value (different microbes) was “high antimicrobial activities”, the inhibition zone (Bacillus Cereus; [2]) was 26 millimeter and the inhibition zone (Bacillus Cereus; [3]) was 28 millimeter. It also gave an inhibition zone (Bacillus Cereus; [4]) of 39 millimeter, an inhibition zone (Escherichia coli; [2]) of 24 millimeter and an inhibition zone (Escherichia coli; [3]) of 30 millimeter. For the same compound, the inhibition zone (Escherichia coli; [4]) was 46 millimeter, the inhibition zone (Pseudomonas aeruginosa; [2]) was 23 millimeter and the inhibition zone (Pseudomonas aeruginosa; [3]) was 24 millimeter. It also gave an inhibition zone (Pseudomonas aeruginosa; [4]) of 42 millimeter, an inhibition zone (Staphylococcus aureus; [2]) of 24 millimeter and an inhibition zone (Staphylococcus aureus; [3]) of 30 millimeter. It also gave an inhibition zone (Staphylococcus aureus; [4]) of 40 millimeter, an inhibition zone (Aspergillus flavus; [2]) of 20 millimeter and an inhibition zone (Aspergillus flavus; [3]) of 24 millimeter. For the same compound, the inhibition zone (Aspergillus flavus; [4]) was 35 millimeter, the inhibition zone [1, 2] was 24 millimeter and the inhibition zone [1, 3] was 25 millimeter. For the same compound, the inhibition zone [1, 4] was 41 millimeter.

`O=C(O)c1cn(C2CC2)c2cc(N3CCNCC3)c(F)cc2c1=O` [Cip., ciprofloxacin, reference compound] showed an inhibition zone (Bacillus Cereus; [2]) of 29 millimeter, an inhibition zone (Bacillus Cereus; [3]) of 30 millimeter and an inhibition zone (Bacillus Cereus; [4]) of 42 millimeter. For the same compound, the inhibition zone (Escherichia coli; [2]) was 30 millimeter, the inhibition zone (Escherichia coli; [3]) was 39 millimeter and the inhibition zone (Escherichia coli; [4]) was 60 millimeter. The inhibition zone (Pseudomonas aeruginosa; [2]) was 29 millimeter, the inhibition zone (Pseudomonas aeruginosa; [3]) was 30 millimeter and the inhibition zone (Pseudomonas aeruginosa; [4]) was 53 millimeter. The inhibition zone (Staphylococcus aureus; [2]) was 43 millimeter, the inhibition zone (Staphylococcus aureus; [3]) was 44 millimeter and the inhibition zone (Staphylococcus aureus; [4]) was 53 millimeter. It also gave an inhibition zone (Aspergillus flavus; [2]) of 29 millimeter, an inhibition zone (Aspergillus flavus; [3]) of 30 millimeter and an inhibition zone (Aspergillus flavus; [4]) of 42 millimeter. For the same compound, the inhibition zone [1, 2] was 29 millimeter, the inhibition zone [1, 3] was 30 millimeter and the inhibition zone [1, 4] was 53 millimeter.
